According to ChEMBL document CHEMBL6134905, “Double Swords in One: Novel Selective PI3K/110β PROTAC Degraders for the Treatment of Multidrug-Resistant Cancer by Activating ERS and Inhibiting P-gp” (J Med Chem, 2025):
The source made the active and inactive calls. No cut-off for these calls is given here. Residues, ends and D or L forms follow the SMILES beside them. *: point of attachment. Cbz = O=C(OCc1ccccc1)*; CH2F = FC*

Experiments:
[1] = tested on: A549/CDDP; assay: Activation of unfolded protein response in human A549/DDP cells at 25 uM incubated for 24 hrs by PROTEOSTATR aggresome dye based fluorescent microscopy; format: functional, cell-based
[2] = biological target: T1, von Hippel-Lindau disease tumor suppressor/Phosphatidylinositol 4,5-bisphosphate 3-kinase catalytic subunit beta isoform (Homo sapiens, UniProt P42338+P40337); assay: PROTAC activity at PI3K-p110beta/VHL in human A549/DDP cells assessed as induction of PI3K-p110beta degradation at 2.5 uM incubated for 24 hrs by Western blot analysis; format: cell-based
T1 sequence (P40337 whole entry, looked up, canonical isoform): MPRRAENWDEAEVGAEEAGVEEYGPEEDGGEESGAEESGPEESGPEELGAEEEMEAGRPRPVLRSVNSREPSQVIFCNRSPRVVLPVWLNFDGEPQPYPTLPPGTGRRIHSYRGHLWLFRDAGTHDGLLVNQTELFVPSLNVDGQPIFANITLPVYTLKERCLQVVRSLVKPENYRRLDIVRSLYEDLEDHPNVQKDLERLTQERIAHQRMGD
T1 sequence (P42338 whole entry, looked up, canonical isoform): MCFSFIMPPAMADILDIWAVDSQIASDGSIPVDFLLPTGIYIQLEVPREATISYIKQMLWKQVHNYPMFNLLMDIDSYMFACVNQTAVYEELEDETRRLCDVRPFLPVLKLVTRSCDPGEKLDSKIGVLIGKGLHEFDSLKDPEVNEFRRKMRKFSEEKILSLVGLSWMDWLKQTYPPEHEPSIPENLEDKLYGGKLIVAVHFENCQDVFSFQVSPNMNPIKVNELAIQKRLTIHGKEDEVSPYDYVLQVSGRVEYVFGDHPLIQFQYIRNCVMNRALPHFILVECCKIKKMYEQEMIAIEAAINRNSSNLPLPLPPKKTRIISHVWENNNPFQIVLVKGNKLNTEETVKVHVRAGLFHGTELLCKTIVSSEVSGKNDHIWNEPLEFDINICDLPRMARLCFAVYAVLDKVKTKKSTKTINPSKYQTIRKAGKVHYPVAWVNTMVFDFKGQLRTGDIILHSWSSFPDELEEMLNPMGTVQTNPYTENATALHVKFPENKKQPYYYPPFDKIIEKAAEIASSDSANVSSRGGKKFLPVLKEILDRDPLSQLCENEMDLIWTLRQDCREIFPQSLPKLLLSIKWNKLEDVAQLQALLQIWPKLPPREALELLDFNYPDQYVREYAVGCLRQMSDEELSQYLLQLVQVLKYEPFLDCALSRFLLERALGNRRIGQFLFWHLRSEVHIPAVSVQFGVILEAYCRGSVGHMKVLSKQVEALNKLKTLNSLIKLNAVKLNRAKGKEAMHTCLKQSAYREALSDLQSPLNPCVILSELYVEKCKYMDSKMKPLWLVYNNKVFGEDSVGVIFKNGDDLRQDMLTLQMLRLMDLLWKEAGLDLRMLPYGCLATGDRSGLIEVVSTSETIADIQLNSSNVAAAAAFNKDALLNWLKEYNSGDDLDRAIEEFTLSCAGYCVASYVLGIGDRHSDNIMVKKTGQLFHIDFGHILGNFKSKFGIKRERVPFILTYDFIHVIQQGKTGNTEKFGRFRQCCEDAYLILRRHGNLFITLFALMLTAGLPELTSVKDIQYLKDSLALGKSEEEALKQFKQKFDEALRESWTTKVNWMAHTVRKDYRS

[3] = biological target: T1, von Hippel-Lindau disease tumor suppressor/Phosphatidylinositol 4,5-bisphosphate 3-kinase catalytic subunit beta isoform; assay: PROTAC activity at PI3K-p110beta/VHL in human MCF7/ADM cells assessed as induction of PI3K-p110beta degradation at 2.5 uM incubated for 24 hrs by Western blot analysis; format: cell-based
[4] = biological target: T1, von Hippel-Lindau disease tumor suppressor/Phosphatidylinositol 4,5-bisphosphate 3-kinase catalytic subunit beta isoform; assay: PROTAC activity at PI3K-p110beta/VHL in human MCF7/ADM cells assessed as induction of PI3K-p110beta degradation at 25 uM incubated for 24 hrs by Western blot analysis; format: cell-based
[5] = biological target: T1, von Hippel-Lindau disease tumor suppressor/Phosphatidylinositol 4,5-bisphosphate 3-kinase catalytic subunit beta isoform; assay: PROTAC activity at PI3K-p110beta/VHL in human A549/DDP cells assessed as induction of PI3K-p110beta degradation at 25 uM incubated for 24 hrs by Western blot analysis; format: cell-based
[6] = tested on: MCF7/ADM; assay: Induction of cell death in human MCF-7/ADM cells at 25 uM incubated for 24 hrs; format: functional, cell-based
[7] = tested on: A549/CDDP; assay: Induction of cell death in human A549/DDP cells at 25 uM incubated for 24 hrs; format: functional, cell-based
[8] = Induction of apoptosis in human MCF7/ADM cells at 25 uM incubated for 24 hrs by Annexin V-FITC/PI staining based flow cytometry analysis (reference value: 5.20%); format: functional
[9] = tested on: A549/CDDP; assay: Induction of apoptosis in human A549/DDP cells at 25 uM incubated for 24 hrs by Annexin V-FITC/PI staining based flow cytometry analysis (reference value: 4.27%); format: functional
[10] = Antitumor activity against human MCF7/ADM cells assessed as cell viability incubated for 24 hrs by MTT assay; format: functional, cell-based
[11] = biological target: T1, von Hippel-Lindau disease tumor suppressor/Phosphatidylinositol 4,5-bisphosphate 3-kinase catalytic subunit beta isoform; assay: PROTAC activity at PI3K-p110beta/VHL in human A549/DDP cells assessed as reduction in PI3K-p110beta mRNA level at 25 uM measured for 24 hrs by qRT-PCR analysis; format: cell-based
[12] = biological target: T1, von Hippel-Lindau disease tumor suppressor/Phosphatidylinositol 4,5-bisphosphate 3-kinase catalytic subunit beta isoform; assay: PROTAC activity at PI3K-p110beta/VHL in human A549/DDP cells assessed as reduction in PI3K-p110beta level at 25 uM measured for 24 hrs by Western blot analysis; format: cell-based
[13] = tested on: MCF7; assay: Antitumor activity against human MCF7 cells assessed as cell viability incubated for 24 hrs by MTT assay; format: functional, cell-based; conditions: MCF7, 24 h
[14] = tested on: A549/CDDP; assay: Antitumor activity against human A549/DDP cells assessed as cell viability incubated for 24 hrs by MTT assay; format: functional, cell-based
[15] = tested on: A549; assay: Antitumor activity against human A549 cells assessed as cell viability incubated for 24 hrs by MTT assay; format: functional, cell-based; conditions: A549, 24 h
[16] = biological target: T1, von Hippel-Lindau disease tumor suppressor/Phosphatidylinositol 4,5-bisphosphate 3-kinase catalytic subunit beta isoform; assay: PROTAC activity at PI3K-p110beta/VHL in human MCF7/ADM cells assessed as reduction in PI3K-p110beta level at 25 uM measured for 24 hrs by Western blot analysis; format: cell-based
[17] = tested on: MCF7/ADM; assay: Antitumor activity against human MCF7/ADM cells xenografted in BALB/c mouse assessed as reduction in tumor volume at 50 mg/kg, ip measured every 2 days; format: functional, organism-based; conditions: time 2.0 day
[18] = biological target: T1, von Hippel-Lindau disease tumor suppressor/Phosphatidylinositol 4,5-bisphosphate 3-kinase catalytic subunit beta isoform; assay: PROTAC activity at PI3K-p110beta/VHL in human MCF7/ADM cells assessed as reduction in PI3K-p110beta mRNA level at 25 uM measured for 24 hrs by qRT-PCR analysis; format: cell-based

Row | SMILES | Activity [2] | Activity [3] | Activity [4] | Activity [5] | also measured
1 | O=c1cc(N2CCOCC2)oc2c(-c3ccccc3)cccc12 | – | – | – | – | Activity [1]: Active
2 | CC(C)[C@H](NC(=O)OCc1ccccc1)C(=O)N[C@@H](C)C(=O)N[C@@H](CC(=O)O)C(=O)CF (Cbz-Val-Ala-Asp-CH2F) | – | – | – | – | Activity [6]: Active; Activity [7]: Active
3 | C[C@H](CCC(=O)NCCS(=O)(=O)O)[C@H]1CC[C@H]2[C@@H]3[C@@H](O)C[C@@H]4C[C@H](O)CC[C@]4(C)[C@H]3CC[C@]12C [TAURURSODIOL] | – | – | – | – | Activity [8]: 21.48%; Activity [6]: Active; Activity [9]: 18.57%; Activity [7]: Active
4 | N#CSc1cc(SC#N)c(N)nc1N | – | – | – | – | Activity [1]: Active
5 | Cc1cc(C(C)Nc2ccccc2C(=O)NCCC(=O)N[C@H](C(=O)N2C[C@H](O)C[C@H]2C(=O)NCc2ccc(-c3scnc3C)cc2)C(C)(C)C)c2nc(N3CCOCC3)cc(=O)n2c1 (some centres not stated) | Active | Active | Active | Active | –
6 | Cc1cc(C(C)Nc2ccccc2)c2nc(N3CCOCC3)cc(=O)n2c1 (configuration not stated) | – | – | – | – | IC50 [10]: 50.8 µM; Activity [11]: inactive; Activity [12]: inactive; IC50 [13]: 75.1 µM; IC50 [14]: 57.9 µM; IC50 [15]: 88.3 µM; Activity [16]: inactive; Activity [17]: Active; Activity [18]: Active

Now from value to molecule, other results behind:

Row | Activity [2] | Activity [3] | Activity [4] | Activity [5] | SMILES | also measured
7 | Active | Active | Active | Active | Cc1cc(C(C)Nc2ccccc2C(=O)NCCCCCC(=O)N[C@H](C(=O)N2C[C@H](O)C[C@H]2C(=O)NCc2ccc(-c3scnc3C)cc2)C(C)(C)C)c2nc(N3CCOCC3)cc(=O)n2c1 (some centres not stated) | –
8 | Active | Active | Active | Active | Cc1cc(C(C)Nc2ccccc2C(=O)NCCCC(=O)N[C@H](C(=O)N2C[C@H](O)C[C@H]2C(=O)NCc2ccc(-c3scnc3C)cc2)C(C)(C)C)c2nc(N3CCOCC3)cc(=O)n2c1 (some centres not stated) | –
9 | Active | Active | Active | Active | Cc1cc(C(C)Nc2ccccc2C(=O)NCCCCCCCCCCC(=O)N[C@H](C(=O)N2C[C@H](O)C[C@H]2C(=O)NCc2ccc(-c3scnc3C)cc2)C(C)(C)C)c2nc(N3CCOCC3)cc(=O)n2c1 (some centres not stated) | –
10 | Active | Active | Active | Active | Cc1cc(C(C)Nc2ccccc2C(=O)NCCCCCCCC(=O)N[C@H](C(=O)N2C[C@H](O)C[C@H]2C(=O)NCc2ccc(-c3scnc3C)cc2)C(C)(C)C)c2nc(N3CCOCC3)cc(=O)n2c1 (some centres not stated) | –
